≈ marks a conversion by molar mass, not a printed value. Some results are limits rather than exact numbers.

This note sets out measurements from PMC12030062, “From In Vitro Cytotoxicity to In Vivo Zebrafish Assays: A Study on 3,3-Dichloro β-, γ- and δ-Lactams and Their Biological Activity Profiles” (Pharmaceuticals, 2025).

For series [1], the system named is A431 cell line (squamous cell carcinoma). Nature of the series: Cell viability, MTT assay, A431. The series is classed as cell-based. The method, then: (§1) Two different endpoints, 3-(4,5-dimethyl-2-thiazolyl)-2,5-diphenyltetrazolium bromide (MTT) and neutral red uptake (NRU), were used to assess differences in cell-induced cytotoxicity. […] In addition, NRU evaluates the interaction of these drugs with the plasmatic membrane. Cell responses were determined from the MTT [16] and NRU [17] assays, using the two proposed cell lines. Cytotoxicity assays were performed at concentrations equal to 80 and 250 µg/mL. The IC50 value, referring to the half-maximal inhibitory concentration, was determined as a key parameter in cytotoxicity studies (Table 1). It plays a crucial role in evaluating cell viability and assessing cellular responses to various drugs or toxins. For cases where IC50 values were below 80 µg/mL, additional studies at lower concentrations were conducted to accurately determine these values. […] The selectivity index (SI), used as a measurement of action against the tumor cell line in comparison with a normal cell line, was also included.
(§2) • In Vitro Assay Using Human Erythrocytes • - Acquisition and Extraction of the Erythrocytes Human blood samples were obtained from the Banc de Sang i Teixits de Barcelona (Spain) from the Catalan Department of Health. Blood was deposited in tubes with the anticoagulant EDTA-K3. Blood samples were centrifuged at 3000 rpm and 4 °C for 10 min (Megafuge 2.0 R. Heraeus Instruments, Hanau, Germany) to induce sedimentation. Plasma was extracted with a Pasteur pipette. Next, the residual pellet was washed with PBS at pH 7.4. This procedure was repeated three times to remove residual leukocytes and platelets and to concentrate the erythrocytes. Following the last wash, the erythrocyte suspension was diluted (1:1) in PBS at pH 7.4 to obtain a suitable erythrocyte suspension (cell density of 8 × 10^9 cell/mL). • - Hemolysis Assay The hemolysis assay determined the capability of different compounds to induce the hemolysis of the erythrocyte membrane. Stock solutions of each compound at 1 mg/mL in PBS at pH 7.4 were prepared. Different volumes (10–80 μL) were placed in polystyrene tubes, and an aliquot of 25 µL of the erythrocyte suspensions was added to each tube. The final volume was 1 mL. The tubes were incubated at room temperature under rotatory conditions. Then, the tubes were centrifuged at 10,000 rpm for 5 min. The supernatants’ absorbance at 540 nm (Shimadzu UV-160A, Shimadzu, Duisburg, Germany) was compared with that of the positive (erythrocytes hemolyzed with distilled water) and negative (erythrocyte suspension in PBS at pH 7.4) controls. The degree of hemolysis was determined using the following equation: Hemolysis (%) = 100 × (Abs − Abs0)/(Abs100 − Abs0) where Abs, Abs0, and Abs100 are the absorbance of the test samples, of the suspension treated with isotonic phosphate–buffered saline (PBS), and of the suspension of complete hemolysis treated with distilled water, respectively. • In Vitro Essay Using Cell Cultures The murine Swiss albino fibroblasts (3T3) and the squamous cell carcinoma (A431) cell lines were obtained from Celltec UB. Cells were grown in DMEM medium (4.5 g/L glucose) supplemented with 10% (v/v) FBS, 2 mM L-glutamine, 100 U/mL penicillin, and 100 µg/mL streptomycin at 37 °C with 5% CO2. Cells were routinely cultured in 75 cm^2 culture flasks and were trypsinized using trypsin–EDTA when the cells reached approximately 80% confluence. The trypan blue assay, which allows for the direct identification and enumeration of the live (unstained) and dead (blue) cells in the cell population, was used to evaluate the viability of the cells in the cell suspension obtained. • - Cell Viability Assays Cell lines of 3T3 (1 × 10^5 cells/mL) and A431 (5 × 10^4 cells/mL) were grown at defined densities in the 60 central wells of a 96-well plate. The cells were incubated for 24 h in 5% CO2 at 37 °C. […]

Series [2] has the same test system. Description: Cell viability, NRU assay, A431. The series is classed as cell-based, human. The protocol: as §1, §2
In series [3] the test system is murine Swiss albino fibroblast (3T3) cell line. Nature of the series: Cell viability, NRU assay, 3T3. The series is classed as cell-based. As to conditions: Mus musculus, 24 h incubation, NRU endpoint. The protocol: as §1, §2
Series [4] is described as follows: Fish embryo acute toxicity (FET): lethality and dysmorphogenesis. The series is classed as in vivo. As to conditions: zebrafish, in vivo, exposure 2 to 72 hpf, read at 72 hpf. The method, then: (§3) Zebrafish provide a widely used vertebrate model for cost-effective, in vivo whole-organism screening.
(§4) (2 mM CaCl2•2 H2O; 0.5 mM MgSO4•7 H2O; 0.75 mM NaHCO3; 0.07 mM KCl). The fish were maintained at a temperature of 26 ± 1 °C on a 14-h light and 10-h dark cycle and were fed daily in the morning with Artemia salina, then with commercial flake food in the afternoon (SDS400, Special Diet Services, Dietex, France). For optimal Zebrafish reproduction, we used animals between 6 months and a year old. The day before the eggs were needed, males and females were placed in a breeding tank with plants at a 2:1 male-to-female ratio (usually using 8 males and 4 females in a big breeding tank). The following morning, eggs were collected 30 min after the lights were turned on. […] Fertilized, non-coagulated, and synchronously divided eggs were selected using a stereomicroscope (Motic SMZ168, Motic Hong Kong Ltd., Hong Kong, China) and transferred to 6-well plates (10 embryos/well). The embryos were exposed to freshly prepared tested concentrations of the compound in 0.3× Danieau’s solution. The chemical stock solution was prepared in 100% dimethylsulfoxide (DMSO) and subsequently diluted in Danieau’s buffer with a final DMSO concentration of 1% (v/v). Testing was carried out using five concentrations with a negative control of solvent with 1% of DMSO. Embryos were incubated at 27 ± 1 °C with a light:dark cycle of 14:10 h until 72 h post-fertilization (hpf) under semi-static conditions, as exposure solutions were renewed with freshly prepared solutions every 24 h. • Lethality and dysmorphogenesis evaluation At 24, 48, and 72 hpf, the embryos were observed under a stereomicroscope to assess lethality. […] At the end of the test, dysmorphogenesis was evaluated in the live embryos only. The average lethality and dysmorphogenesis were calculated for 10 embryos per concentration, followed by averaging the results of at least three independent experiments. […] Subsequently, the TER test was conducted according to the protocol described by Guzman et al.. […] The distance was averaged and converted from pixels to millimeters. This assay was performed only on larvae from concentration groups where both the lethality and dysmorphogenesis were less than 20%. Six larvae per concentration group were evaluated in at least three independent experiments. • Statistical analysis Statistical analysis was performed using GraphPad Prism v.10.0.2. The TER test was analyzed using a one-way ANOVA and a post hoc multiple-comparison Dunnett test. The significance threshold was established at p < 0.05.

Series [5] has as its system Zebrafish embryos. The description is as above. The series is classed as in vivo. The protocol: as §3, §4

Take `CC(C)(C)N1C(=O)C(Cl)(Cl)C1c1ccccc1` (centres unmarked) [Compound 1]: the “IC50 (MTT) A431” value in series [1] (24 h incubation, MTT endpoint, A431) amounted to 71.65 ± 1.23 µg/mL (≈ 263 µM). In addition, the IC50 in series [1] (Homo sapiens, A-431, 24 h, 24 h incubation, MTT endpoint, A431, read-out: IC50 (MTT) A431) is 71 µg/mL (≈ 261 µM); in series [2] (Homo sapiens, A-431, 24 h, 24 h incubation, NRU endpoint, A431), 35 µg/mL (≈ 129 µM); in series [3] it was greater than 250 µg/mL. Moreover, the “SI (MTT), selectivity index” value in series [1] (SI = IC50 (3T3)/IC50 (A431), MTT) was 2.94. Moreover, in series [1] (lower IC50 for A431 than 3T3), the “selective cytotoxicity, A431 in comparison with 3T3 cells” value is recorded as “some selective cytotoxicity”. The “IC50 (NRU) A431” value in series [2] (24 h incubation, NRU endpoint, A431) was 35.74 ± 3.24 µg/mL (≈ 131 µM). Moreover, the “SI (NRU), selectivity index” value in series [2] (SI = IC50 (3T3)/IC50 (A431), NRU) is recorded as >>6.99. For the same compound, the LC50 in series [4] is 14.9 µg/mL (≈ 54.8 µM). In addition, the EC50 in series [5] (Danio rerio, read-out: EC50 (dysmorphogenesis)) was determined as 5.23 µg/mL (≈ 19.2 µM). In addition, in series [5] (TI = LC50/EC50), the “teratogenic index (TI)” value was determined as 2.85. Moreover, the teratogenicity classification entry in series [5] (TI > 2) is “potential teratogen”. Further, in series [5] (embryos exposed 2 to 72 hpf), the morphological abnormalities result is “pericardial edema, large yolk sacs, and flexion abnormalities”. Also, the “LC50 (lethality)” value in series [5] (exposure 2 to 72 hpf, read at 72 hpf) is reported as 14.9 µg/mL (≈ 54.7 µM).
